The source of these data is patent US20220380383A1, “NEUROPROTECTIVE PDI MODULATING SMALL MOLECULES AND METHODS OF USE THEREOF” (THE TRUSTEES OF COLUMBIA UNIVERSITY IN THE CITY OF NEW YORK, priority 2018, published 2022).

The target of one data set is PDI (Homo sapiens, UniProt P07237). Put plainly: Enzymatic assay for inhibition of PDI using insulin as substrate. It is filed as biochemical.
The test system of data set [1] is uninduced PC12 cells not expressing mHTTQ103. Description: General cell toxicity in PC12 cell culture assay. It is filed as cell-based. As to the method:
Neuroprotection was assessed by each compound's ability to rescue cells from mutant-huntingtin-induced cell death (“Ind Q103” cells; blue). General cell toxicity of each compound was assessed in uninduced cells not expressing mutant-huntingtin protein (“Unind Q103” cells; red). NMP, DMSO, LOC14 in NMP and LOC14 in DMSO were used as controls.
Data from cells induced to express mHTT^Q103 (blue) and cells not expressing mHTT^Q103 (red) are plotted as mean percent of DMSO-treated uninduced cells±SD with n=3.
The follow-up testing of primary screen hits was performed in a similar way. Fresh powder stocks of primary hits were re-ordered from vendors, dissolved in DMSO and tested in a two-fold serial dilution across 10 wells in both tebufenozide-induced and uninduced PC12 mHTT^Q103 cells. Dose-response curves were plotted as mean±SD and fit to either four-parameter sigmoidal (for uninduced cells) or bell-shaped (induced) function using Prism (GraphPad Software).

The next data set has as its target Sigma σ1 (Homo sapiens, UniProt Q99720). Description: Off-target panel, Sigma σ1. It is filed as binding. The conditions noted are these: Conc. 3 μM.
Data set [2] has as its target Nicotinic Acetylcholine α1, Bungarotoxin (Homo sapiens, UniProt P02708+P07510+Q07001). Put plainly: Off-target panel, Nicotinic Acetylcholine α1. Type of data set: binding. The settings on record: read-out: % Inh.
The target of the next data set is T1, VEGFR2 (Homo sapiens, UniProt P35968).
T1 construct: CEREP (CRO, Safety47 panel)
T1 sequence (P35968 20-1356): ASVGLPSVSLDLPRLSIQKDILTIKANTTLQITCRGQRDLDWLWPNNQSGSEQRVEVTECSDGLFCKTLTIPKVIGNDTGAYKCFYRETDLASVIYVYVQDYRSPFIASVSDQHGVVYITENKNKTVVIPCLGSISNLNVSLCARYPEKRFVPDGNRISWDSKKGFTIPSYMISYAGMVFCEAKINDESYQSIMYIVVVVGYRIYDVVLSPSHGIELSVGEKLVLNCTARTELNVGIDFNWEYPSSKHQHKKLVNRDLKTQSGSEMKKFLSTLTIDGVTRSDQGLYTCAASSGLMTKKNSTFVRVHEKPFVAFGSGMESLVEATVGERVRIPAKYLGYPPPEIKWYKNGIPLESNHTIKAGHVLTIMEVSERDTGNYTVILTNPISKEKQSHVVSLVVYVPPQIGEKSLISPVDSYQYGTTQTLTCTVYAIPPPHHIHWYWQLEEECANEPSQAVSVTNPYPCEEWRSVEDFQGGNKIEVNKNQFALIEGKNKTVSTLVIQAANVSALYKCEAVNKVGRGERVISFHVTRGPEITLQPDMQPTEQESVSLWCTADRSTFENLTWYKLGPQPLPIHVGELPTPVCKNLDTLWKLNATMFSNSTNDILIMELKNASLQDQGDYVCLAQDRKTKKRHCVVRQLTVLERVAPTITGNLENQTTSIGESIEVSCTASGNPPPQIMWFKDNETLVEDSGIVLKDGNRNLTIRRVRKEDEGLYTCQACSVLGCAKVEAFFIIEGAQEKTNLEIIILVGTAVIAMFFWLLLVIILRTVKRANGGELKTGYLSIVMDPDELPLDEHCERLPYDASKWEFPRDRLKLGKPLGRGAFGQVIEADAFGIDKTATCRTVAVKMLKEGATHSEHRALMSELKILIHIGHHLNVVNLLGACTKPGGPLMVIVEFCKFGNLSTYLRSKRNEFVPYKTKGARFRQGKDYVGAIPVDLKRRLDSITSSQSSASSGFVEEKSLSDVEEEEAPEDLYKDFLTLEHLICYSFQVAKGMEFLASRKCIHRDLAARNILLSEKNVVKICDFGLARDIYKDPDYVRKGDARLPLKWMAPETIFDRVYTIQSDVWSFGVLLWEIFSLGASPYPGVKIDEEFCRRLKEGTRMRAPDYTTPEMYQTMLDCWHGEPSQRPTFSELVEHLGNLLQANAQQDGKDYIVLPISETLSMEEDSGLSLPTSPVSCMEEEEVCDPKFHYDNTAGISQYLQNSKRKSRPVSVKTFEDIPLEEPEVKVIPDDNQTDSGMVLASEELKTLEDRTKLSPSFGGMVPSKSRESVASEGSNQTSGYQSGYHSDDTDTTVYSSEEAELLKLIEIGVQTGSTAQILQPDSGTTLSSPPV
Put plainly: Safety47 panel kinase VEGFR2. Type of data set: biochemical. The conditions noted are these: Inhibitor mode; 3 μM. The text has this:
(§1) LOC14 was also submitted for testing in CEREP's Safety47 panel. CEREP is a CRO specializing in preclinical research, discovery and development of new pharmaceutical drugs.

Another data set deals with T2, SERT (Homo sapiens, UniProt P31645).
T2 construct: CEREP (CRO panel)
Put plainly: Safety47 panel transporter SERT. Type of data set: cell-based. The settings on record: Blocker mode; 3 μM.
Source text: as §1

The next data set concerns the target T3, NET (Homo sapiens, UniProt P23975).
T3 construct: CEREP (CRO panel)
Put plainly: Safety47 panel transporter NET. Type of data set: cell-based. The settings on record: Blocker mode; 3 μM.
Source text: as §1

In the next data set the target is T4, INSR (Homo sapiens, UniProt P06213).
T4 construct: CEREP (CRO panel)
Put plainly: Safety47 panel kinase INSR. Type of data set: biochemical. The conditions noted are these: Inhibitor mode; 3 μM.
Source text: as §1

Sequence of Sigma σ1 (Q99720 whole entry): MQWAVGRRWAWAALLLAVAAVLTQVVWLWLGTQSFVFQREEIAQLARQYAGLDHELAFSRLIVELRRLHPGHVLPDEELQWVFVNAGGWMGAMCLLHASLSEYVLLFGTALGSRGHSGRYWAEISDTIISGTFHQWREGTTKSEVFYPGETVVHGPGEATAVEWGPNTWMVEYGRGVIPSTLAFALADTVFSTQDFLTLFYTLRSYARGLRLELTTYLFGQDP
Sequence of PDI (P07237 18-508): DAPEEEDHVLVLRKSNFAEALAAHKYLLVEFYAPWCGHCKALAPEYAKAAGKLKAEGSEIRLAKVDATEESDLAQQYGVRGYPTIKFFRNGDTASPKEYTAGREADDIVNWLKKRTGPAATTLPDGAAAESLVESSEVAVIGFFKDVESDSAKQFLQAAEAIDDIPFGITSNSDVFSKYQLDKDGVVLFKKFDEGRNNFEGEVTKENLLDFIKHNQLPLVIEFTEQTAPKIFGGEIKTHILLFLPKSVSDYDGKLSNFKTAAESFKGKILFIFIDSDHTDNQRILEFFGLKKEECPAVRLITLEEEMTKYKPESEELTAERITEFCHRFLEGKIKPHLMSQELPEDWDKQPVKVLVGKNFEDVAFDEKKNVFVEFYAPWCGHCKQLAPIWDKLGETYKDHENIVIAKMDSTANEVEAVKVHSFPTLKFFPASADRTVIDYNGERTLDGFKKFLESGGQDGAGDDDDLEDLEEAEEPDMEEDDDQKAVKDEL
Sequence of Nicotinic Acetylcholine α1, Bungarotoxin (P11230 24-501): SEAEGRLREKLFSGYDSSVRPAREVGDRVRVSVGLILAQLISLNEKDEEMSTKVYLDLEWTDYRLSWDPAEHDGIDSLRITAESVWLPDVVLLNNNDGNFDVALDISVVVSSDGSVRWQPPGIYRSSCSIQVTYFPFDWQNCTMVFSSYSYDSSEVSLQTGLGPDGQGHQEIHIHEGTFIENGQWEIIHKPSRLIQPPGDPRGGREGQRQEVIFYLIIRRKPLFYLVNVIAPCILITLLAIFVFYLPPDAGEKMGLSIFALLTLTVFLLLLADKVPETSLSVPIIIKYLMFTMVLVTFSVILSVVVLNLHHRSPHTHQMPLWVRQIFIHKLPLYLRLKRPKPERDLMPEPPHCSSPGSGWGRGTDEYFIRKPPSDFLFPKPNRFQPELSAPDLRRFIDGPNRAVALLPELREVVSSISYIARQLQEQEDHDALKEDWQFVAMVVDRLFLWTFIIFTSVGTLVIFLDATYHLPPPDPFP
Sequence of Nicotinic Acetylcholine α1, Bungarotoxin (P07510 23-517): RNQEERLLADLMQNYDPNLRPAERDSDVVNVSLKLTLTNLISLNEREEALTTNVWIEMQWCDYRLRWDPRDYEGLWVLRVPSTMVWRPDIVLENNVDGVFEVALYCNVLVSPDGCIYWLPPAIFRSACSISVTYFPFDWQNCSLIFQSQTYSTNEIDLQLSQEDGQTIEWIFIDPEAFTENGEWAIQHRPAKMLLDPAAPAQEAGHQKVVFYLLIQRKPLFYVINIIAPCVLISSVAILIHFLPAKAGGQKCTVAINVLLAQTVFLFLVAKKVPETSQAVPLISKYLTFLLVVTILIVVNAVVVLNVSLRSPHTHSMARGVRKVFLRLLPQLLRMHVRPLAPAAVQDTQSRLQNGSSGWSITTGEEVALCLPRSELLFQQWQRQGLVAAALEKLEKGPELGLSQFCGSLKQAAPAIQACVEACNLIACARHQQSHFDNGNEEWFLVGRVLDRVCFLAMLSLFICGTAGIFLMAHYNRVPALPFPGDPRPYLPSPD
Sequence of Nicotinic Acetylcholine α1, Bungarotoxin (Q07001 22-517): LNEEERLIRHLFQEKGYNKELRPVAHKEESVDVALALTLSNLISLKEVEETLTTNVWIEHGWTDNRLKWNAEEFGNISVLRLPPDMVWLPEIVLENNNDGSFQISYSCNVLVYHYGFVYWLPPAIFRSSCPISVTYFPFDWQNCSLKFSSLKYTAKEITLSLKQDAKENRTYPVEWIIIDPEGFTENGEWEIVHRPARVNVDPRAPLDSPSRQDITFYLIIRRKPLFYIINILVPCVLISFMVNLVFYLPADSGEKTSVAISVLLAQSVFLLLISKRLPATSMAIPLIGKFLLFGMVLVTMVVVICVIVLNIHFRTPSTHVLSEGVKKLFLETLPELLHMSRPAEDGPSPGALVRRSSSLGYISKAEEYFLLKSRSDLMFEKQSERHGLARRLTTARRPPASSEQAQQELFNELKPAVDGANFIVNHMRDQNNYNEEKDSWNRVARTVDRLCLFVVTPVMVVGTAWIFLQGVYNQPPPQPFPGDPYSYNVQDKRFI
Sequence of Nicotinic Acetylcholine α1, Bungarotoxin (P02708 21-457): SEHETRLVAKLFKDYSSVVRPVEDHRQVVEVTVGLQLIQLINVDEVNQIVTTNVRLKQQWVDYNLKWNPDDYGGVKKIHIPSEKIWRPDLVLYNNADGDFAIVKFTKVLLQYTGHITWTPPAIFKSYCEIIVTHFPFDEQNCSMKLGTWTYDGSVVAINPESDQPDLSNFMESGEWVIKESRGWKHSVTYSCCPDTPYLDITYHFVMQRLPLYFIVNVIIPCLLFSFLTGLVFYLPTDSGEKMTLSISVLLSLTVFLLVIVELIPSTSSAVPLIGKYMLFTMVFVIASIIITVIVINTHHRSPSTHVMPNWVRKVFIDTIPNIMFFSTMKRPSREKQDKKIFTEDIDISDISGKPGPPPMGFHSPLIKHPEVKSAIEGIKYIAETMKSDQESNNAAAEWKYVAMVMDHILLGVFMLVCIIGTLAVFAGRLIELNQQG
T3 sequence (P23975 whole entry): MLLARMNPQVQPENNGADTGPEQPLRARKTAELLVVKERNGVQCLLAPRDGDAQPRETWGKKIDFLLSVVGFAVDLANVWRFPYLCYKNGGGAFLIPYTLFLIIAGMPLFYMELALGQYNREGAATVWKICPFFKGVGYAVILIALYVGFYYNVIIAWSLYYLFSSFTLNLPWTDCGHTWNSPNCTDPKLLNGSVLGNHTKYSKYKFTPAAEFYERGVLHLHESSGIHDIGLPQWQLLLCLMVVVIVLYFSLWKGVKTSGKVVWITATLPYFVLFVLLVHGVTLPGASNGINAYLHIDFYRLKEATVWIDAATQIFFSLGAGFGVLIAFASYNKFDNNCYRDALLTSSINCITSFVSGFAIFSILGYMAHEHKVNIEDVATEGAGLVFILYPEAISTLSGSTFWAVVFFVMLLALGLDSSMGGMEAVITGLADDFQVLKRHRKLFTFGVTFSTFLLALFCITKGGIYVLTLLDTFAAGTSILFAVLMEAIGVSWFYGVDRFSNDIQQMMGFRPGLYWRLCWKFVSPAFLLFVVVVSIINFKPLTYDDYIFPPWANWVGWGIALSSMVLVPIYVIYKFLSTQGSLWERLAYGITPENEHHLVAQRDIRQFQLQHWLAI

For `O=C(C1CC1)N1CCN(Cn2sc3c(F)cccc3c2=O)CC1` [LC-43], the “inhibition of enzymatic (reductase) activity of PDI” value at PDI is “able to inhibit the enzymatic activity of PDI”. Also, in data set [1], the “toxicity in PC12 cell culture assay” value is listed as “decreased cellular toxicity”.
Take `O=C(C1CC1)N1CCN(Cn2sc3ccccc3c2=O)CC1` [LOC14]: the inhibition at 3 µM against Sigma σ1 is -8%; in data set [2], 11%. The Average was 17.2 on VEGFR2, 5.0 on SERT, 0.0 on NET and 22.7 on INSR.
